From US12344611B2, “Bridged cycloformylpyridine derivatives and uses thereof” (BroadenBio Co., Ltd., priority 2019, dated 2025)

Experiments:
HuH-7 hepatoma cells = assay: In vitro cell proliferation assay (CellTiter-Glo, CTG), HuH-7; format: cell-based; conditions: HuH-7 cells
Description: (§1) In Vitro Cell Proliferation Assay of FGFR4 (CellTiter-Glo Luminescent Cell Viability Assay, CTG Assay)
(§2) Hep 3B hepatoma cells were purchased from Cell Resource Center of Peking Union College, and HuH-7 hepatoma cells were purchased from Shanghai Biological Technology Co., Ltd. enzyme research. The cells were prepared at a concentration of 3×10^4/mL, which was then added with 100 μL to each well of a 96-well transparent flat-bottom black-walled plate to make 3000 cells per well. Incubate overnight at 37° C. in 5% CO2 incubator. Dilute a compound and add it to the wells having the cells, then add cell culture medium to 200 μL per well. Put in CO2 incubator for incubation. After 96 hours, 100 μL of culture medium was removed from each well, 100 μL of CTG was added, and the 96-well plate was placed on a shaker for 10 minutes, and placed in the shade at room temperature for 45 minutes. Data was read out by SoftMax Pro i3X Microplate Reader of MD, analyzed by the software GraphPad Prism 5.0, and S-shaped dose-response curve was drawn, then the EC50 values were calculated.

FGFR4 = FGFR4 (Homo sapiens, UniProt P22455); assay: In vitro biochemical kinase analysis of FGFR4 (HTRF KinEASE-TK); conditions: HTRF kinase assay
FGFR4, sequence (P22455 22-802): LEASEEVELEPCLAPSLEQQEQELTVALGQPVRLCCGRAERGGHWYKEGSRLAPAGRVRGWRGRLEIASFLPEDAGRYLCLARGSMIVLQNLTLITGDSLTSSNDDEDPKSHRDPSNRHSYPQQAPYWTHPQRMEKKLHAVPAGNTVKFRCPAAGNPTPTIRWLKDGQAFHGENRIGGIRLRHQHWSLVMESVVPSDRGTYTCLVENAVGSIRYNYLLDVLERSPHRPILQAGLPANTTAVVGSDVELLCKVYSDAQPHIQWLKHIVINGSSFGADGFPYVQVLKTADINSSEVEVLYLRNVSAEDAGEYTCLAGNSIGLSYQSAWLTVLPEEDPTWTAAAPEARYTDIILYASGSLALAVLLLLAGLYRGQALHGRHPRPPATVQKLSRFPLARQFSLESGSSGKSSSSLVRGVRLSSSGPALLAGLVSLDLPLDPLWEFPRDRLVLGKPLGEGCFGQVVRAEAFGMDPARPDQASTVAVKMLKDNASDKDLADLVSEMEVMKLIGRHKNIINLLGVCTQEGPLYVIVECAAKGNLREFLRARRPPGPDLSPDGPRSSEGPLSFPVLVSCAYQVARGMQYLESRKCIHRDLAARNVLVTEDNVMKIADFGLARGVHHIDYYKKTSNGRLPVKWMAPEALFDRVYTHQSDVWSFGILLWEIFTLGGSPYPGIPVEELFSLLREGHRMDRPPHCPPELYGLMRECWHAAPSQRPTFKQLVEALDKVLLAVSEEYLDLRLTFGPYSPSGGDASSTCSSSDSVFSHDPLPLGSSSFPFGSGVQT
Description: In Vitro Biochemical Kinase Analysis of FGFR4
FGFR4 protein kinase detection kit was purchased from Cisbio (HTRF KinEASE-TK kit). Prepare 1× kinase reaction buffer. Transfer 10 nL of a diluted compound to each well of a reaction plate (784075, Greiner) with an Echo 550, and seal the plate with sealing film. The reaction plate was centrifuged at 1000 g for 1 minute. Prepare 2×FGFR4 using 1× kinase reaction buffer, add 5 μL of kinase to each well of the reaction plate, seal the plate, centrifuge at 1000 g for 30 seconds, and incubate it at room temperature for 10 minutes. Prepare a mixture of 2×TK-substrate-biotin and ATP using 1× kinase reaction buffer, add 5 μL of TK-substrate-biotin/ATP mixture to the reaction plate, seal the plate with sealing film, centrifuge at 1000 g for 30 seconds, and react at room temperature for 40 minutes. Prepare 2×Sa-XL 665 and TK-antibody-Cryptate mixture using HTRF detection buffer, add 10 μL Sa-XL 665 and TK-antibody-Cryptate mixture to each well, centrifuge at 1000 g for 30 seconds, and react at room temperature for 1 hour. Envision 2104 read fluorescence signals at 615 nm (Cryptate) and at 665 nm (XL665). IC50 of the compound was calculated using the GraphPad nonlinear fitting formula.

Hep 3B hepatoma cells = assay: In vitro cell proliferation assay (CellTiter-Glo, CTG), Hep 3B; format: cell-based, human; conditions: Hep 3B cells
Description: as §1, §2

Structure (SMILES) | EC50 (HuH-7 hepatoma cells; Homo sapiens, Huh-7, 96 h) [nM] | IC50 (FGFR4) [nM] | EC50 (Hep 3B hepatoma cells; Homo sapiens, Hep3B, 96 h) [nM] | EC50 (HuH-7 hepatoma cells; 96 hours) [nM] | EC50 (Hep 3B hepatoma cells; 96 hours) [nM]
COCCOc1cc(NC(=O)N2c3nc(C=O)c(CN4CCN(C)CC4=O)cc3C3CC2C3)ncc1C#N [Compound 25, N-(5-cyano-4-(methoxyethoxy)pyridin-2-yl)-7-formyl-6-((4-methyl-2-oxopiperazin-1-yl)methyl)-3,4-dihydro-2,4-methylene-1,8-naphthyridine-1(2H)-carboxamide] | 25.4 | 2.5 | 19.3 |  | 
COCCOCCNc1cc(NC(=O)N2c3nc(C=O)ccc3C3(OC)CC2C3)ncc1C#N [Compound 22, N-(5-cyano-4-((2-(2-methoxyethoxy)ethyl)amino)pyridin-2-yl)-7-formyl-4-methoxy-3,4-dihydro-2,4-methylene-1,8-naphthyridine-1(2H)-carboxamide] | 125 | 4.7 | 125 |  | 
CCS(=O)(=O)NC12CC(C1)N(C(=O)Nc1cc(NCCOC)c(C#N)cn1)c1nc(C=O)ccc12 [Compound 38, N-(5-cyano-4-((2-methoxyethyl)amino)pyridin-2-yl)-4-ethanesulfonamido-7-formyl-3,4-dihydro-2,4-methylene-1,8-naphthyridine-1(2H)-carboxamide] | 19.2 | 2.3 | 9.5 |  | 
COCCNc1cc(NC(=O)N2c3nc(C=O)ccc3C3(OCCOC)CC2C3)ncc1C#N [Compound 36, N-(5-cyano-4-((2-methoxyethyl)amino)pyridin-2-yl)-4-(2-methoxyethoxy)-7-formyl-3,4-dihydro-2,4-methylene-1,8-naphthyridine-1(2H)-carboxamide] | 11.8 | 2.5 | 8.5 |  | 
CN1CCN(Cc2cc3c(nc2C=O)N(C(=O)Nc2ccc(C(F)(F)F)cn2)C2CC3(F)C2)C(=O)C1 [Compound 16, N-(5-(trifluoromethyl)pyridin-2-yl)-4-fluoro-7-formyl-6-((4-methyl-2-oxopiperazin-1-yl)methyl)-3,4-dihydro-2,4-methylene-1,8-naphthyridine-1(2H)-carboxamide] | > 1000 | 23.2 | 638 |  | 
COCCNc1cc(NC(=O)N2c3nc(C=O)ccc3C3(O)CC2C3)ncc1C#N [Compound 2, N-(5-cyano-4-((2-methoxyethyl)amino)pyridin-2-yl)-7-formyl-4-hydroxy-3,4-dihydro-2,4-methylene-1,8-naphthyridine-1(2H)-carboxamide] | 52 | 2.2 | 8.1 |  | 
COCCNc1cc(NC(=O)N2c3nc(C=O)c(CN4CCCCOC4=O)cc3C3(F)CC2C3)ncc1C#N [Compound 14] | 28 | 3.3 | 7.8 |  | 
CCc1cc2c(nc1C=O)N(C(=O)Nc1cc(NCCOC)c(C#N)cn1)C1CC2(F)C1 [Compound 21] | 28.4 | 2.1 | 15.8 |  | 
COCCOc1cc(NC(=O)N2c3nc(C=O)c(CN4CCN(C)CC4=O)cc3C3(F)CC2C3)ncc1C#N [Compound 9] | 71 | 4.9 | 58 |  | 
COCCNc1cc(NC(=O)N2c3nc(C=O)ccc3C3(NC(=O)C4CCN(C)C4)CC2C3)ncc1C#N (stereo not drawn) [Compound 40] | 39.6 | 3.4 | 24.9 |  | 
COCCNc1cc(NC(=O)N2c3nc(C=O)ccc3C3(NC(=O)CN4CCCC4)CC2C3)ncc1C#N [Compound 41] | 13.3 | 3.4 | 11.9 |  | 

The next lines start with the values.

EC50 (HuH-7 hepatoma cells; Homo sapiens, Huh-7, 96 h) [nM] | IC50 (FGFR4) [nM] | EC50 (Hep 3B hepatoma cells; Homo sapiens, Hep3B, 96 h) [nM] | EC50 (HuH-7 hepatoma cells; 96 hours) [nM] | EC50 (Hep 3B hepatoma cells; 96 hours) [nM] | Structure (SMILES)
31.6 | 0.8 | 6 |  |  | CO[C@@H]1CCC[C@H]1Nc1cc(NC(=O)N2c3nc(C=O)ccc3C3(F)CC2C3)ncc1C#N (relative stereo) [Compound 19, N-(5-cyano-4-(((trans)-2-methoxycyclopentyl)amino)pyridin-2-yl)-4-fluoro-7-formyl-3,4-dihydro-2,4-methylene-1,8-naphthyridine-1(2H)-carboxamide]
 | 2.1 |  | 0.9 | 8.6 | COC1CCCC1Nc1cc(NC(=O)N2c3nc(C=O)c(CN4CCN(C)CC4=O)cc3C3(F)CC2C3)ncc1C#N (single isomer, unassigned) [Compound 12-P1, N-(5-cyano-4-(((cis)-2-methoxycyclopentyl)amino)pyridin-2-yl)-4-fluoro-7-formyl-64(4-methyl-2-oxopiperazin-1-yl)methyl)-3,4-dihydro-2,4-methylene-1,8-naphthyridine-1(2H)-carboxamide]
62 | 0.4 | 15.1 |  |  | COCCNc1cc(NC(=O)N2c3nc(C=O)ccc3C3(F)CC2C3)ncc1C#N [Compound 1, N-(5-cyano-4-((2-methoxyethyl)amino)pyridin-2-yl)-4-fluoro-7-formyl-3,4-dihydro-2,4-methylene-1,8-naphthyridine-1(2H)-carboxamide]
1.7 | 0.6 | 1.4 |  |  | COC[C@@H](C)Nc1cc(NC(=O)N2c3nc(C=O)c(CN4CCN(C)CC4=O)cc3C3CC2C3)ncc1C#N [Compound 24]
 | 1.3 |  | 0.2 | 5.6 | COC1CCCC1Nc1cc(NC(=O)N2c3nc(C=O)c(CN4CCN(C)CC4=O)cc3C3(F)CC2C3)ncc1C#N (single isomer, unassigned) [Compound 11-P1, N-(5-cyano-4-(((trans)-2-methoxycyclopentyl)amino)pyridin-2-yl)-4-fluoro-7-formyl-64(4-methyl-2-oxopiperazin-1-yl)methyl)-3,4-dihydro-2,4-methylene-1,8-naphthyridine-1(2H)-carboxamide]
4.5 | 1.1 | 5.5 |  |  | COCCNc1cc(NC(=O)N2c3nc(C=O)ccc3C3(NC(=O)C4CCN(C)CC4)CC2C3)ncc1C#N [Compound 31]
1 | 0.3 | 1.3 |  |  | CO[C@@H]1CCC[C@H]1Nc1cc(NC(=O)N2c3nc(C=O)c(CN4CCN(C)CC4=O)cc3C3CC2C3)ncc1C#N (relative stereo) [Compound 26, N-(5-cyano-4-(((trans)-2-methoxycyclopentyl)amino)pyridin-2-yl)-7-formyl-6-((4-methyl-2-oxopiperazin-1-yl)methyl)-3,4-dihydro-2,4-methylene-1,8-naphthyridine-1(2H)-carboxamide]
0.08 | 0.3 | 0.3 |  |  | CO[C@@H]1CCC[C@H]1Nc1cc(NC(=O)N2c3nc(C=O)ccc3C3(NC(=O)CN(C)C)CC2C3)ncc1C#N (relative stereo) [Compound 33, N-(5-cyano-4-(((trans)-2-methoxycyclopentyl)amino)pyridin-2-yl)-4-(2-(dimethylamino)acetamido)-7-formyl-3,4-dihydro-2,4-methylene-1,8-naphthyridine-1(2H)-carboxamide]
42 | 1.6 | 13.4 |  |  | COCCNc1cc(NC(=O)N2c3nc(C=O)ccc3C3(OC)CC2C3)ncc1C#N [Compound 3]
0.2 | 1.1 | 1.2 |  |  | COCCNc1cc(NC(=O)N2c3nc(C=O)ccc3C3(OCCN(C)C)CC2C3)ncc1C#N [Compound 29, N-(5-cyano-4-((2-methoxyethyl)amino)pyridin-2-yl)-4-(2-(dimethylamino)ethoxy)-7-formyl-3,4-dihydro-2,4-methylene-1,8-naphthyridine-1(2H)-carboxamide]
6.9 | 1.1 | 7.2 |  |  | COCCNc1cc(NC(=O)N2c3nc(C=O)c(CN4CCCCOC4=O)cc3C3CC2C3)ncc1C#N [Compound 28]
